Assay results: patent publication US20260231945A1, “NEMATICIDAL COMPOUNDS, THEIR COMPOSITION AND USE THEREOF” (priority 2023, published 2026)

Columns and labels:
[1] = Stability studies: storage at room temperature and under accelerated storage condition (ATS), purity estimated by HPLC; format: physicochemical; conditions: properly packed material; for purity estimated by HPLC, Day 14 Condition 54° C. ± 2° C. / purity estimated by HPLC, Day Zero Condition 54° C. ± 2° C.: 54° C. ± 2° C. (accelerated storage)
From the text: The properly packed material was subjected to the conditions mentioned in the table below (Table 5).

[2] = tested on: Root-knot nematodes Meloidogyne spp. juveniles (J2); assay: whole plant or invertebrate; format: in vivo; conditions: 70-100 J2 juveniles, 22±2° C., 70±5% RH, dead/inactive counted at 24, 48, 72 and 96 hours (time of rating not stated); for mortality at 500 ppm: Meloidogyne
Description: The compound to be tested (4 mg) was dissolved in 40 μl of DMSO to make 100,000 PPM concentration stock solution. […] The nematode suspension (250 μl) having 70-100 juveniles (J2) of Root-knot nematodes Meloidogyne spp. pipetted out to each cell of 24 well bioassay plate. Sterile water (1 ml) was pipetted out in fresh 2.5 ml Eppendorf micro-centrifuge tubes. The desired concentration (500 ppm) of the compound was prepared by adding stock solution in 2.5 ml Eppendorf micro-centrifuge tubes. For each treatment 4 replications were maintained. The bioassay plates were incubated at 22±2° C. and 70±5% RH in humidity chambers.

Compound: N#Cc1ccc(C=CC=NC(CCCNC(=N)N)C(=O)O)c(C(F)(F)F)c1 (stereo not shown) [Example 39]
- purity estimated by HPLC, Day 14 Condition 25° C. ± 2° C. [1]: 99.55
- purity estimated by HPLC, Day 14 Condition 54° C. ± 2° C. [1]: 99.60
- purity estimated by HPLC, Day Zero Condition 25° C. ± 2° C. [1]: 99.40
- purity estimated by HPLC, Day Zero Condition 54° C. ± 2° C. [1]: 99.40
- % Mortality Rating ([2]; 500 ppm): A (70-100)

Compound: N=C(N)NCCC[C@H](/N=C/C=C/c1ccc2ccccc2c1)C(=O)O [Example 24, (E)-N^2-[(2E)-3-(naphthalen-2-yl)prop-2-en-1-ylidene]-L-arginine]
- purity estimated by HPLC, Day 14 Condition 25° C. ± 2° C. [1]: 98.85
- purity estimated by HPLC, Day 14 Condition 54° C. ± 2° C. [1]: 98.90
- purity estimated by HPLC, Day Zero Condition 25° C. ± 2° C. [1]: 98.90
- purity estimated by HPLC, Day Zero Condition 54° C. ± 2° C. [1]: 98.75
- mortality at 500 ppm [2]: 50 to 69%

Compound: N#Cc1ccc(/C=C/C=N/[C@@H](CCCNC(=N)N)C(=O)O)cc1 [Example 20, (E)-N^2-[(2E)-3-(4-cyanophenyl)prop-2-en-1-ylidene]-L-arginine]
- purity estimated by HPLC, Day 14 Condition 25° C. ± 2° C. [1]: 99.50
- purity estimated by HPLC, Day 14 Condition 54° C. ± 2° C. [1]: 98.90
- purity estimated by HPLC, Day Zero Condition 25° C. ± 2° C. [1]: 99.55
- purity estimated by HPLC, Day Zero Condition 54° C. ± 2° C. [1]: 99.43
- mortality at 500 ppm [2]: 70 to 100%

Compound: N=C(N)NCCC[C@H](/N=C/C=C/c1ccccc1)C(=O)O [Example 9, (E)-N^2-[(2E)-3-phenylprop-2-en-1-ylidene]-L-arginine]
- purity estimated by HPLC, Day 14 Condition 25° C. ± 2° C. [1]: 99.59
- purity estimated by HPLC, Day 14 Condition 54° C. ± 2° C. [1]: 99.64
- purity estimated by HPLC, Day Zero Condition 25° C. ± 2° C. [1]: 99.60
- purity estimated by HPLC, Day Zero Condition 54° C. ± 2° C. [1]: 99.63
- mortality at 500 ppm [2]: 70 to 100%

Compound: N=C(N)NCCC[C@H](/N=C/C=C/c1c(O)cccc1F)C(=O)O [Example 3, (E)-N^2-[(2E)-3-(6-fluoro-2-hydroxyphenyl)prop-2-en-1-ylidene]-L-arginine]
- purity estimated by HPLC, Day 14 Condition 25° C. ± 2° C. [1]: 98.80
- purity estimated by HPLC, Day 14 Condition 54° C. ± 2° C. [1]: 98.79
- purity estimated by HPLC, Day Zero Condition 25° C. ± 2° C. [1]: 99.23
- purity estimated by HPLC, Day Zero Condition 54° C. ± 2° C. [1]: 99.10
- mortality at 500 ppm [2]: 50 to 69%
